Assay results: patent US9320741B2, “Compositions and methods for treating neoplasia, inflammatory disease and other disorders” (Dana-Farber Cancer Institute, Inc., priority 2010, dated 2016)
Read-outs that look alike come from different tables or passages of the source.

Assays:
[1] = Unspecified biological assay
[2] = molecular target: GFP-BRD4 (Homo sapiens (Human), UniProt O60885)
[3] = system: cellular receptors; assay: Off-target effects on cellular receptors
[4] = Pharmacokinetic studies in CD1 mice; details: for AUC: CD1, mouse, plasma
[5] = molecular target: GFP-NUT (Homo sapiens (Human), UniProt Q86Y26); assay: FRAP in U2OS cells, GFP-NUT; details: 500 nM
GFP-NUT, sequence (Q86Y26 whole entry, looked up): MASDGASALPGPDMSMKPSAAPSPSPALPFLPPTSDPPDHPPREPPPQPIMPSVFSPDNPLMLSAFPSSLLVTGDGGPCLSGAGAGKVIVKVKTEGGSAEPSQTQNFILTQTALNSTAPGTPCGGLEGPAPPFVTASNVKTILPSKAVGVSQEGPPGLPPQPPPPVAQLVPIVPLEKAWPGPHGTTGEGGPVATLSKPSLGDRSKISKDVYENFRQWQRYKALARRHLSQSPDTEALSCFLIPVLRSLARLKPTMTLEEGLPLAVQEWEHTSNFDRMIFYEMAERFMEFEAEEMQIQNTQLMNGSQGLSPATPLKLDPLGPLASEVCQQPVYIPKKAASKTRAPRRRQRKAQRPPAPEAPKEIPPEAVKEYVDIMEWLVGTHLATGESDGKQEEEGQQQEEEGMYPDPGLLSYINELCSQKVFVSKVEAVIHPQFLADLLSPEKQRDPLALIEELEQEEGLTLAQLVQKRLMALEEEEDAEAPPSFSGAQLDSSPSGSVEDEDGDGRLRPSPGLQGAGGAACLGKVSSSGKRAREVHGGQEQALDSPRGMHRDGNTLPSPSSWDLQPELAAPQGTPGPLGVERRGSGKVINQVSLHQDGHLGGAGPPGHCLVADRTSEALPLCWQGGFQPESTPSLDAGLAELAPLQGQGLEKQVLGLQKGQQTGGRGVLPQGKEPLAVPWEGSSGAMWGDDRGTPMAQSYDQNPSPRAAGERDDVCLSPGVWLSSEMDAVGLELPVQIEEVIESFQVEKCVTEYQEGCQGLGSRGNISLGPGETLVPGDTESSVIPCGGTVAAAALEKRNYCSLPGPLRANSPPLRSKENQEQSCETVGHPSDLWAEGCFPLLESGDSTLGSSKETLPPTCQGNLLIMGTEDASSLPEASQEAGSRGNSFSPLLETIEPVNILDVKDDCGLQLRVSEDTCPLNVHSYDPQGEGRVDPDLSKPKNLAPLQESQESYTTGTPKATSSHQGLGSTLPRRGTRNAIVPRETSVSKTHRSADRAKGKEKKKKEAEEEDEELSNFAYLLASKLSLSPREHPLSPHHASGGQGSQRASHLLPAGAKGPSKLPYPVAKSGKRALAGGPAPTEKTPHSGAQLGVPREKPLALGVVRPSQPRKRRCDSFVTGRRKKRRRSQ
Description: (§2) FRAP studies were performed on U2OS cells as previously described^3,20. In brief, U2OS cells were transfected (lipofectamine; Invitrogen) with mammalian overexpression constructs encoding GFP chimera with BRD4, NUT and BRD4-NUT. A 5 μm^2 nuclear region was bleached with high laser intensity in one cell within each field, and measured for recovery with low laser intensity and a 150 μm pinhole. Images of identical fields were acquired using a Nikon Cl Plus confocal microscope equipped with a 37° C. heated chamber and FRAP modules over 90 seconds. Average intensities of the bleached region were measured over time and using MetaMorph v7, and normalized to an independent region of interest before bleaching.

[6] = system: BRD4-dependent human carcinoma cells; assay: Annexin-V/propidium iodide flow cytometry, BRD4-dependent carcinoma cells; type: cell-based; details: 500 nM, 24 or 48 hours
Description: Thus, early and late apoptosis was assessed with annexin-V and propidium iodide staining by flow cytometry.
Trypsinized cells were mixed 1:1 on ice with Annexin-V/propidium iodide buffer (10 mM HEPES pH 7.4, 140 mM NaCl, 2.5 mM CaCl2) containing Annexin V-FITC (BD Pharmingen, 1:500) and propidium iodide (Invitrogen, 1:1000). Samples were immediately analyzed on a BD FACS Canto II. Visualizations and analyses of apoptotic fractions were generated using FlowJo flow cytometry analysis software (Tree Star, Inc.).

[7] = system: BRD3-NUT cells; assay: BRD3-NUT xenograft study; type: in vivo, mice; details: 50 mg/kg IP 7 days/week
Source text: Mice were implanted subcutaneously with BRD3-NUT cells. Tumor measurement data were collected weekly. […] On day 24 post-injection, five mice from each group were euthanized and tumor samples were collected to be sent for lab analysis. Throughout the remainder of the study tumor samples were collected as mice were sacrificed. For all samples one half of the tumor was fixed in 10% formalin and the other half was flash frozen on dry ice. Treatment ended on day 32. Tumor volume and weights were collected weekly until all mice either became moribund or tumors reached 2 cm in any dimension. […] Upon cessation of therapy, tumor growth resumed. Tumor volume differences were significant at all points (p=7.65274E-09 at Day 24).

[8] = system: NMC 797 and Per403 cells; assay: Differentiation and proliferation immunohistochemistry, NMC cells; type: cell-based, human
Source text: Direct inhibition of gene products expressed from recurrent, oncogenic translocations is a validated therapeutic approach in cancer^28,29. The phenotypic consequences of chemical inhibition of BET-family bromodomains on the BRD4-dependent NUT midline carcinoma was explored. BRD4-NUT chromatin localization is mechanistically linked to the preserved tandem bromodomains of BRD4 in the fusion protein^17. A characteristic feature of NMC is the appearance of discrete nuclear speckles of the BRD4-NUT oncoprotein by NUT-directed immunohistochemistry (IHC)^30.
A striking differentiation phenotype is observed with knock-down of BRD4-NUT in NMC cell lines^17. […] Differentiation was prompt (<24 hours) and characterized by markedly augmented expression of cytokeratin, a hallmark of squamous differentiation (FIG. 3h).

[9] = molecular target: GFP-BRD4-NUT (Homo sapiens (Human), UniProt O60885+Q86Y26); details: 500 nM, compared to vehicle control
Description: as §2

[10] = system: NMC 797 xenografts; assay: NMC 797 xenograft efficacy study
Description: Prior to randomization and after four days of therapy, mice were evaluated by PET imaging.
To capture comparative mechanistic and pharmacodynamic data, all animals were sacrificed and tumors were explanted for histopathologic analysis.
Animals were followed daily for clinical symptoms. Tumor measurements were assessed by caliper measurements, and volume calculated using the formula Vol=0.5×L×W^2. After 2 weeks of treatment, all mice were humanely euthanized, and tumors were fixed in 10% formalin for histopathological examination. Statistical significance of tumor volumes was calculated by two-sided Students t-test. All animal studies were approved by the IACUC of the DFCI.

[11] = system: TE10 and TT; assay: Differentiation immunohistochemistry, non-BRD4-dependent squamous carcinoma lines; type: cell-based, human
[12] = system: TT and TE10; assay: Cell proliferation assay, non-NMC squamous carcinoma lines; type: cell-based, human; details: TT and TE10, 250 nM, 72 hours
Description: Data is presented as mean±s.d. (n=3). IC50 values were calculated by logistic regression.

[13] = molecular target: BRD4(2) (Homo sapiens (Human), UniProt O60885); assay: Alpha-assay acetyl-histone binding, BRD4 site 2; details: 12-point dose response curve; for IC50: read-out: Bio-assay IC50 BRD4(2)
[14] = system: 797 cells; assay: Cell proliferation assay, 797 cell line; type: cell-based; details: Homo sapiens, read-out: Cell-assay IC50 797 cells
Description: Curve fit was calculated by logistical regression.
Cells were seeded into white, 384-well microtiter plates (Nunc) at 500 cells per well in a total volume of 50 μL media. […] Compounds were delivered to microtiter assay plates by robotic pin transfer (PerkinElmer JANUS equipped with a V&P Scientific 100 nL pin tool). Following a 48 h incubation at 37° C., cells were lysed and wells were assessed for total ATP content using a commercial proliferation assay (Cell TiterGlo; Promega). Replicate measurements were analyzed with respect to dose and estimates of IC50 were calculated by logistic regression (GraphPad Prism).

[15] = molecular target: BRD4(1) (Homo sapiens (Human), UniProt O60885); assay: Alpha-assay acetyl-histone binding, BRD4 site 1; details: 12-point dose response curve; for IC50: read-out: Bio-assay IC50 BRD4(1)
Description: The binding activity of lead compounds with the BRD4 site 1 was determined by Alpha-assay with a 12-point dose response curve (FIG. 56A).
(§1) Assays were performed as described previously^8 with minor modifications from the manufacturer's protocol (PerkinElmer, USA). All reagents were diluted in 50 mM HEPES, 100 mM NaCl, 0.1% BSA, pH 7.4 supplemented with 0.05% CHAPS and allowed to equilibrate to room temperature prior to addition to plates. […] Plates were sealed and incubated for a further 30 minutes, before the addition of 4 μl of streptavidin-coated donor beads (25 μg/ml) and 4 μl nickel chelate acceptor beads (25 μg/ml) under low light conditions. Plates were foil-sealed to protect from light, incubated at room temperature for 60 minutes and read on a PHERAstar FS plate reader (BMG Labtech, Germany) using an AlphaScreen 680 excitation/570 emission filter set. IC50 values were calculated in Prism 5 (GraphPad Software, USA) after normalization against corresponding DMSO controls and are given as the final concentration of compound in the 20 μl reaction volume.

[16] = system: NMC 11060 xenografts; assay: Patient-derived NMC 11060 primary xenograft study; type: in vivo, mice; details: 50 mg kg^−1 daily for four days
Source text: In parallel with these studies, a patient with widely metastatic BRD4-NUT positive NMC arising from the mediastinum was identified. With the goal of developing a more clinically-relevant disease model, short-term cultures were established using discarded clinical material obtained from pleural fluid draining from a palliative chest tube in the patient.

[17] = system: NMC 11060 cells; assay: Flow cytometry for DNA content, NMC 11060; type: cell-based, human; details: 250 nM, 48 h
Description: Data is presented as mean±s.d. (n=3). IC50 values were calculated by logistic regression. […] Data points are mean±s.d. (n=3).

[18] = system: NMC 797 cells; assay: Flow cytometry for DNA content, NMC 797; type: cell-based, human; details: 250 nM, 48 h
Description: Data is presented as mean±s.d. (n=3). IC50 values were calculated by logistic regression. […] Data points are mean±s.d. (n=3). […] PI, propidium iodide. […] A significant response to therapy is observed by two-tailed t-test at 14 days (p=0.039). Data represent the mean±s.d. (n=7). […] Expanded fields are provided in Supplementary FIGS. 11, 12. […] Quantitative analysis of keratin induction was performed using image masking (FIG. 5J, right panel) and pixel positivity analysis (FIG. 5K). A significant response to therapy is observed by two-tailed t-test (p=0.0001). Data represent the mean±s.d. of three independent wide microscopic fields.

[19] = system: Keratin-14, Keratin-10, epidermal transglutaminase (TGM1); assay: RT-PCR expression analysis of squamous tissue genes in NMC 797 cells; type: cell-based, human
[20] = molecular target: CBP (Homo sapiens (Human), UniProt Q92793); assay: AlphaScreen profiling against CBP; type: binding
CBP, sequence (Q92793 whole entry): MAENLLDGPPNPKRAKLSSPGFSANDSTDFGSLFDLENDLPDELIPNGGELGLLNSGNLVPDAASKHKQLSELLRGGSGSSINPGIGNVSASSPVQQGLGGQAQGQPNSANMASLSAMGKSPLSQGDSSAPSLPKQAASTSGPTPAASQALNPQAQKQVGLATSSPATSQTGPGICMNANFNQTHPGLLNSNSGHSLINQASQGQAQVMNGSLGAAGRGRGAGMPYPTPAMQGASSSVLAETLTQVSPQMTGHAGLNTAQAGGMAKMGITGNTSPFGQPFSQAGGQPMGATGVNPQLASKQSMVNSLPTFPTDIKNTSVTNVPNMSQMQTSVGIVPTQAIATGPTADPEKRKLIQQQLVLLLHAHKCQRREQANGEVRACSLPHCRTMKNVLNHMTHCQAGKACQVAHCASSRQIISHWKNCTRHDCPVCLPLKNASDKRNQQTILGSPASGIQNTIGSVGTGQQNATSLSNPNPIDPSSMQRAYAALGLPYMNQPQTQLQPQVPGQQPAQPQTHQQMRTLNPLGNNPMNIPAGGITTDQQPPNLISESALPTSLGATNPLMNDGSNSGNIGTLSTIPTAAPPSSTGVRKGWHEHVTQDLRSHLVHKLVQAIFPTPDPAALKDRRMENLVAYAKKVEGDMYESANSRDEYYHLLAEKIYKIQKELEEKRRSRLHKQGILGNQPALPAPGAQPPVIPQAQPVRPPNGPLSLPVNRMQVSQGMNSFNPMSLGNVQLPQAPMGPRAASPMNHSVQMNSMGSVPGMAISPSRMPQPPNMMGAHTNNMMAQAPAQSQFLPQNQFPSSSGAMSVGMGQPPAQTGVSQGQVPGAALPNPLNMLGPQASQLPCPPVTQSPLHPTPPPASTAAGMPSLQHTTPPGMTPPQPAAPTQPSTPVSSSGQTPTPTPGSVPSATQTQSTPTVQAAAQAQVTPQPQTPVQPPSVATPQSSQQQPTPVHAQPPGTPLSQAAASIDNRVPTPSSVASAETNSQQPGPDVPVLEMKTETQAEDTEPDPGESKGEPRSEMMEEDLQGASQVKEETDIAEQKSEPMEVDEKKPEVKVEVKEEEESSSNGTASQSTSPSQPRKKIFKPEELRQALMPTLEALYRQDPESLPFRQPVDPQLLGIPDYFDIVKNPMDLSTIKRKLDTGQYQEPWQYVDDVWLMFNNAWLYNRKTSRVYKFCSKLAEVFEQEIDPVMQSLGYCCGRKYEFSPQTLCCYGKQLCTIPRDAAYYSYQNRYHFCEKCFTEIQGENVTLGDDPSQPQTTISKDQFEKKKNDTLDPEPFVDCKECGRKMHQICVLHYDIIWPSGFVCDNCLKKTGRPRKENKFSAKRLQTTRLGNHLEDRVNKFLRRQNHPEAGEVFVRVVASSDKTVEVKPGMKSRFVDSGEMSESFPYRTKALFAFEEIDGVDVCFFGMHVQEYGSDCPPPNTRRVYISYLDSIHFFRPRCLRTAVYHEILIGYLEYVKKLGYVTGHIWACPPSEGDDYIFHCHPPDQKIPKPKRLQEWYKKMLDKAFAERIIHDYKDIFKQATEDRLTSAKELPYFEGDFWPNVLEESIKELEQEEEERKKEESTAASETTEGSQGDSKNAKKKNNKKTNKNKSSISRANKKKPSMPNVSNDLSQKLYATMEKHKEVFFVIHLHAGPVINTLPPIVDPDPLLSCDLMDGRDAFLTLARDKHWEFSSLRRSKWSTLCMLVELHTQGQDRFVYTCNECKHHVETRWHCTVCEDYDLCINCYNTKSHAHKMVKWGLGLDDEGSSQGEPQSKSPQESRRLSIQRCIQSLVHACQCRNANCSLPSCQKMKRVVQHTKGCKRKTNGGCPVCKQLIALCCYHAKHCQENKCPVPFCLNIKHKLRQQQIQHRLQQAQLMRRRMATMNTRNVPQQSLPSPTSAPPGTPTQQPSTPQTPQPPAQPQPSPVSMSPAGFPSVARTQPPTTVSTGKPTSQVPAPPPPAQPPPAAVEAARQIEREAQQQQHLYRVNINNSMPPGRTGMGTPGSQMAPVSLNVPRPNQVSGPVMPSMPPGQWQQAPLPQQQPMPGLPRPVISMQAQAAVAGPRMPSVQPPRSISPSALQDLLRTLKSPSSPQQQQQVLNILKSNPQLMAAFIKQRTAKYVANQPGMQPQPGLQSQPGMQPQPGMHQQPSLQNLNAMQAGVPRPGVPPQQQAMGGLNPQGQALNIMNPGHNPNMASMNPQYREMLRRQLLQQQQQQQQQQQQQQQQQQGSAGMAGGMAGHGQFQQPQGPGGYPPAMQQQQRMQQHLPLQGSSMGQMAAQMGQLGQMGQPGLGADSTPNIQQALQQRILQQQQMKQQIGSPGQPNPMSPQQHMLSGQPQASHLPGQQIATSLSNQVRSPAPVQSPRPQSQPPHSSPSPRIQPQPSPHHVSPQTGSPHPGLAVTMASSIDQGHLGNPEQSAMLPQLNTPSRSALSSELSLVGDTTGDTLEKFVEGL
Description: as §1

[21] = system: BET family members; assay: AlphaScreen profiling against other BET family members; type: binding, human

With `Cc1sc2c(c1C)C(c1ccc(Cl)cc1)=NC(CC(=O)NN=Cc1ccc(O)cc1)c1nnc(C)n1-2` (centres unmarked) [hydrazone (4)] the “activity in at least one biological assay” value [1] was “showed activity”.

With “tert-Butyl 2-(4-(4-chlorophenyl)-2,3,9-trimethyl-6H-thieno[3,2-f][1,2,4]triazolo[4,3-a][1,4]diazepin-6-yl)acetate [JQ1]” the “fluorescence recovery of GFP-BRD4” value ([2]; U2OS cells, 500 nM) was “observed recovery is immediate”, the “off-target effects on cellular receptors” value [3] was “few off-target effects on cellular receptors” and the “oral bioavailability (F)” value ([4]; CD1 mice, oral 10 mg kg^−1) was 49%. For the same molecule, the “redistribution of GFP-NUT” value [5] was “no effect was observed”, the “apoptosis (annexin-V and propidium iodide staining)” value [6] was “induced immediate and progressive apoptosis” and the body weight [7] was “mild weight loss with rapid recovery after cessation of therapy”. For the same molecule, the tumor volume [7] was “tumor regression while on therapy”, the “nuclear NUT foci by IHC” value ([8]; 797 NMC cell line, 500 nM, 48 hours) was “effaced nuclear foci” and the time to differentiation ([8]; NMC 797 and Per403 cells) was less than 24 h. For the same molecule, the “time-to-recovery of fluorescence intensity, GFP-BRD4-NUT” value [9] was “markedly accelerated time-to-recovery of fluorescence intensity”, the “tumor growth (tumor volume by caliper)” value ([10]; 50 mg kg^−1 daily intraperitoneal, 14 days) was “statistically-significant reduction in tumor growth” and the “FDG uptake by PET imaging” value ([10]; 50 mg kg^−1 daily intraperitoneal, four days) was “marked response on FDG uptake”. For the same molecule, the “tumor keratin expression, quantitative IHC” value ([10]; 50 mg kg^−1 daily, excised tumors) was “strong (3+) keratin expression”, the “NUT nuclear speckles in sectioned tumor tissue” value ([10]; 50 mg kg^−1 daily, excised tumors, IHC) was “effacement of NUT nuclear speckles” and the differentiation effects [11] was “fail to exhibit differentiation effects”. For the same molecule, the “effect on cell proliferation” value [12] was “Minimal effects observed on cell proliferation”.

In the case of `Cc1sc2c(c1C)C(c1ccc(Cl)cc1)=N[C@@H](CC(=O)NCCN1CCN(C)CC1)c1nnc(C)n1-2` [JQ13], the “binding activity with the BRD4 site 2” value [13] is reported as “excellent binding activity”, the IC50 [13] is reported as 0.584 nM and the IC50 ([14]; proliferation after 72 hours) is reported as 10900 nM. The “binding activity with the BRD4 site 1” value [15] was “excellent binding activity” and the IC50 [15] was 2.49 nM.

In the case of `Cc1sc2c(c1C)C(c1ccc(Cl)cc1)=NC(CC(=O)NCCCN1CCN(C)CC1)c1nnc(C)n1-2` (centres unmarked) [JQ35], the “binding activity with the BRD4 site 2” value [13] is reported as “excellent binding activity” and the “binding activity with the BRD4 site 1” value [15] is reported as “excellent binding activity”.

With `Cc1sc2c(c1C)C(c1ccc(Cl)cc1)=N[C@H](CC(=O)OC(C)(C)C)c1nnc(C)n1-2` [(R)-JQ1] the IC50 ([14]; 72 h) was 1540 nM.

In the case of `Cc1sc2c(c1C)C(c1ccc(Cl)cc1)=N[C@@H](CC(=O)OC(C)(C)C)c1nnc(C)n1-2` (single isomer, unassigned) [(+)-JQ1], the “fluorescence recovery of GFP-BRD4” value ([2]; 250 nM, 5 h, compared to vehicle control) is reported as “enhanced recovery”, the “FDG uptake by PET imaging” value [16] is reported as “marked response on FDG uptake” and the “tumor keratin expression, quantitative IHC” value [16] is reported as “induction of keratin expression”. For the same molecule, the AUC ([4]; iv, 5 mg/kg) was 2090 ng·h/mL, the AUC ([4]; po, 10 mg/kg) was 2090 ng·h/mL and the “half-life (T1/2)” value ([4]; CD1 mice, intravenous 5 mg kg^−1) was “approximately one”. For the same molecule, the “cell cycle (DNA content)” value [17] was “induces a G1 arrest”, the “differentiation and growth arrest phenotypes” value ([8]; BRD4-dependent NMC cells) was “differentiation and growth arrest phenotypes are prompted” and the “cell cycle (DNA content)” value [18] was “induced a G1 arrest”. The “effect on epidermal transglutaminase (TGM1)” value [19] was “absent effect” and the “induction of Keratin-10” value [19] was “modest induction”.

For `Cc1sc2c(c1C)C(c1ccc(Cl)cc1)=N[C@@H](CC(=O)NCCc1cnc[nH]1)c1nnc(C)n1-2` [JQ8], the “binding activity with the BRD4 site 2” value [13] was “excellent binding activity” and the “binding activity with the BRD4 site 1” value [15] was “excellent binding activity”.

For `Cc1sc2c(c1C)C(c1ccc(Cl)cc1)=N[C@@H](CC(=O)OC(C)(C)C)c1nnc(C)n1-2` [JQ1S], the “binding and inhibition of CBP” value [20] was “inactive” and the “binding and inhibition of BET family members” value [21] was “active”.

For `Cc1sc2c(c1C)C(c1ccc(Cl)cc1)=NC(CC(=O)NN)c1nnc(C)n1-2` (centres unmarked) [hydrazide (3)], the “activity in at least one biological assay” value [1] was “showed activity”.

For `Cc1sc2c(c1C)C(c1ccc(Cl)cc1)=NC(CC(=O)NCCN1CCOCC1)c1nnc(C)n1-2` (centres unmarked) [JQ33], the “binding activity with the BRD4 site 2” value [13] was “excellent binding activity”, the IC50 [13] was 29.5 nM and the “binding activity with the BRD4 site 1” value [15] was “excellent binding activity”. For the same molecule, the IC50 [15] was 85 nM.

For `Cc1sc2c(c1C)C(c1ccc(Cl)cc1)=N[C@@H](CC(=O)N/N=C/c1ncc[nH]1)c1nnc(C)n1-2` [JQ6], the “binding activity with the BRD4 site 2” value [13] was “excellent binding activity” and the “binding activity with the BRD4 site 1” value [15] was “excellent binding activity”.
